# Test results from patent US8404643B2, “Metastin derivatives and use thereof” (priority 2005, dated 2013).
# Square brackets hold non-standard residues; d marks the D form. Peptide text beside a SMILES is read from it. Phe(3-F) = N[C@@H](Cc1cccc(F)c1)C(=O)O; Phe(4-F) = N[C@@H](Cc1ccc(F)cc1)C(=O)O; Arg(Me) = CNC(=N)NCCC[C@H](N)C(=O)O; Hyp = O=C(O)[C@@H]1C[C@@H](O)CN1; Aib = CC(C)(N)C(=O)O; azaGly = NNC(=O)O
# Target: T1, hOT7T175 (Homo sapiens, UniProt Q969F8)
# T1 construct: expressed in transfected cells
# Assay: Assay for intracellular Ca ion level-increasing activity using FLIPR
# Format: cell-based
# Conditions: hOT7T175/CHO cells, relative to Metastin (1-54)
# Method in brief: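 CHO/dhfr− cells stably transfected with hOT7T175, selected for high metastin response, loaded with Fluo3-AM for 1 h at 37 °C in HANKS/HBSS (pH 7.4) with probenecid. Peptides were diluted from 1×10^−3 M DMSO stock into HANKS/HBSS with 2.5 mM probenecid, 0.2% BSA, 0.1% CHAPS; intracellular Ca rise read by FLIPR.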
# T1 sequence (Q969F8 whole entry L364H): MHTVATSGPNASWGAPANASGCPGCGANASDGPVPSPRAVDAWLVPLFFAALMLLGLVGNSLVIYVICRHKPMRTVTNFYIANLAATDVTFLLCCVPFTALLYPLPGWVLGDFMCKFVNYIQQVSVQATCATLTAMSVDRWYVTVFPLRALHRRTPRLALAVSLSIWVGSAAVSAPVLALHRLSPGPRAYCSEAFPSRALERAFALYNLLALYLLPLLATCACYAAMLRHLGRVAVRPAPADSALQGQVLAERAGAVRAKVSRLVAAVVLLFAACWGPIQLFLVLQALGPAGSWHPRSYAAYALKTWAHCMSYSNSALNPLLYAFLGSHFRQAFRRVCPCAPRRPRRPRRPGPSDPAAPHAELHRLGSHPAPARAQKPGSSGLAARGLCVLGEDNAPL
row,Structure (SMILES),Specific Activity: intracellular Ca ion level-increasing activity [specific activity to Metastin (1-54)]
1,"CNC(=N)NCCC[C@H](NC(=O)[C@H](CC(C)C)NC(=O)NNC(=O)[C@H](Cc1cccc(F)c1)NC(=O)[C@@H](NC(=O)[C@H](CC(N)=O)NC(=O)C(C)(C)NC(=O)[C@@H](Cc1ccc(O)cc1)NC(C)=O)[C@@H](C)O)C(=O)N[C@@H](Cc1c[nH]c2ccccc12)C(N)=O [Compound No. 786, Ac-D-Tyr-Aib-Asn-Thr-Phe(3F)-AzaGly-Leu-Arg(Me)-Trp-NH2] (Ac-[dY][Aib]NT[Phe(3-F)][azaGly]L[Arg(Me)]W-NH2)",3.3
2,"CNC(=N)NCCC[C@H](NC(=O)[C@H](CC(C)C)NC(=O)NNC(=O)[C@H](Cc1ccc(F)cc1)NC(=O)[C@@H](NC(=O)[C@H](CC(N)=O)NC(=O)[C@@H]1C[C@@H](O)CN1C(=O)[C@@H](Cc1ccc(O)cc1)NC(C)=O)[C@@H](C)O)C(=O)N[C@@H](Cc1c[nH]c2ccccc12)C(N)=O [Compound No. 787, Ac-D-Tyr-Hyp-Asn-Thr-Phe(4F)-AzaGly-Leu-Arg(Me)-Trp-NH2] (Ac-[dY][Hyp]NT[Phe(4-F)][azaGly]L[Arg(Me)]W-NH2)",2.3
3,"CNC(=N)NCCC[C@H](NC(=O)[C@H](CC(C)C)NC(=O)NNC(=O)[C@@H](Cc1ccccc1)NC(=O)[C@@H](NC(=O)[C@H](CC(N)=O)NC(=O)[C@@H]1C[C@@H](O)CN1C(=O)[C@@H](Cc1ccc(O)cc1)NC(C)=O)[C@@H](C)O)C(=O)N[C@@H](Cc1c[nH]c2ccccc12)C(N)=O [Compound No. 794, Ac-D-Tyr-Hyp-Asn-Thr-D-Phe-AzaGly-Leu-Arg(Me)-Trp-NH2] (Ac-[dY][Hyp]NT[dF][azaGly]L[Arg(Me)]W-NH2)",2.3

# Continued, values first:
row,Specific Activity: intracellular Ca ion level-increasing activity [specific activity to Metastin (1-54)],Structure (SMILES)
1,2.7,"CNC(=N)NCCC[C@H](NC(=O)[C@H](CC(C)C)NC(=O)NNC(=O)[C@H](Cc1ccc(F)cc1)NC(=O)[C@@H](NC(=O)[C@H](CC(N)=O)NC(=O)[C@H](CCC(=O)O)NC(=O)[C@@H](Cc1ccc(O)cc1)NC(C)=O)[C@@H](C)O)C(=O)N[C@@H](Cc1c[nH]c2ccccc12)C(N)=O [Compound No. 788, Ac-D-Tyr-Glu-Asn-Thr-Phe(4F)-AzaGly-Leu-Arg(Me)-Trp-NH2] (Ac-[dY]ENT[Phe(4-F)][azaGly]L[Arg(Me)]W-NH2)"
2,3.4,"CNC(=N)NCCC[C@H](NC(=O)[C@H](CC(C)C)NC(=O)NNC(=O)[C@H](Cc1ccc(F)cc1)NC(=O)[C@@H](NC(=O)[C@H](CC(N)=O)NC(=O)[C@H](CCCCN)NC(=O)[C@@H](Cc1ccc(O)cc1)NC(C)=O)[C@@H](C)O)C(=O)N[C@@H](Cc1c[nH]c2ccccc12)C(N)=O [Compound No. 789, Ac-D-Tyr-Lys-Asn-Thr-Phe(4F)-AzaGly-Leu-Arg(Me)-Trp-NH2] (Ac-[dY]KNT[Phe(4-F)][azaGly]L[Arg(Me)]W-NH2)"
3,2.3,"CNC(=N)NCCC[C@H](NC(=O)[C@H](CC(C)C)NC(=O)NNC(=O)[C@H](Cc1ccc(F)cc1)NC(=O)[C@@H](NC(=O)[C@H](CC(N)=O)NC(=O)CNC(=O)[C@@H](Cc1ccc(O)cc1)NC(C)=O)[C@@H](C)O)C(=O)N[C@@H](Cc1c[nH]c2ccccc12)C(N)=O [Compound No. 790, Ac-D-Tyr-Gly-Asn-Thr-Phe(4F)-AzaGly-Leu-Arg(Me)-Trp-NH2] (Ac-[dY]GNT[Phe(4-F)][azaGly]L[Arg(Me)]W-NH2)"
4,2.9,"CNC(=N)NCCC[C@H](NC(=O)[C@H](CC(C)C)NC(=O)NNC(=O)[C@H](Cc1ccc(F)cc1)NC(=O)[C@@H](NC(=O)[C@H](CC(N)=O)NC(=O)C(C)(C)NC(=O)[C@@H](Cc1ccc(O)cc1)NC(C)=O)[C@@H](C)O)C(=O)N[C@@H](Cc1c[nH]c2ccccc12)C(N)=O [Compound No. 791, Ac-D-Tyr-Aib-Asn-Thr-Phe(4F)-AzaGly-Leu-Arg(Me)-Trp-NH2] (Ac-[dY][Aib]NT[Phe(4-F)][azaGly]L[Arg(Me)]W-NH2)"
